Publication PMC6100582 (Molecules : A Journal of Synthetic Chemistry and Natural …, 2018)
In brackets after ≈: the same amount, converted by molar mass. Where two headings read alike, the source gives them in different places.

Columns and labels:
[1] = test system: Candida albicans ATCC 90028; assay: In vitro antifungal susceptibility testing (MIC determination); format: cell-based; conditions: ATCC90028
[2] = test system: Acinetobacter baumannii MFBF 10913; assay: Minimum biofilm eradication assay; format: cell-based
Method: (§1) MBECs of fumardiamides 4a–f and succindiamides 5a–f were determined as follows. Each well (96-well plate) was filled with 100 µl of bacterial (10^7 CFU/mL) or yeast (5 × 10^6 CFU/mL) suspension. When the inhibition of yeast biofilm formation was tested, the wells were pre-treated with fetal bovine serum (FBS) (250 µl per well). Negative controls contained broth only. Positive controls were performed using standard antimicrobial drugs gentamycin (Gen) and Amph, respectively. […] Following incubation period, each well was aspirated, washed three times and vigorously shaken to remove all non-adherent bacteria/yeast. The remaining attached cells were fixed with methanol (15 min) and the plates were left to dry overnight. Formed biofilm was stained with crystal violet (1%, 5 min). Excess stain was rinsed by placing the plate under running tap water and the plates were left to dry. Adherent cells were solubilized using ethanol. The absorbance was read at 570 nm. The MBEC value represents the lowest dilution of a compound at which bacteria fail to grow.

[3] = test system: Bacillus cereus ATCC 11778; assay: Minimum biofilm eradication assay; format: cell-based
Method: as §1

[4] = test system: Bacillus subtilis ATCC 6633; assay: Minimum biofilm eradication assay; format: cell-based
Method: as §1

[5] = test system: Enterococcus faecalis ATCC 29212; assay: Minimum biofilm eradication assay; format: cell-based
Method: as §1

[6] = test system: Proteus mirabilis MFBF 10430; assay: Minimum biofilm eradication assay; format: cell-based
Method: as §1

[7] = test system: Pseudomonas aeruginosa ATCC 27853; assay: Minimum biofilm eradication assay; format: cell-based
Method: as §1

[8] = test system: Serratia marcescens ATCC 10905; assay: Minimum biofilm eradication assay; format: cell-based
Method: as §1

[9] = test system: Staphylococcus aureus ATCC 6538; assay: Minimum biofilm eradication assay; format: cell-based
Method: as §1

[10] = test system: Para-Influenza-3 Virus; assay: organism not typed; format: cell-based; conditions: Vero cells
[11] = test system: Punta Toro Virus; assay: microbe, parasite or virus in culture; format: cell-based; conditions: Vero cells
[12] = test system: Capan-1 (pancreatic adenocarcinoma); assay: Antiproliferative screening (cytostatic activity); format: cell-based; conditions: Homo sapiens, CAPAN-1; 72 h, IncuCyte imaging; read-out: IC50 Capan-1
Method: (§2) All human tumor cell lines were acquired from the American Type Culture Collection (ATCC, Manassas, VA, USA), except for the DND-41 cell line which was purchased from the Deutsche Sammlung von Mikroorganismen und Zellkulturen (DSMZ Leibniz-Institut, Braunschweig, Germany) and the Hap1 cell line which was purchased from Horizon Discovery (Waterbeach, UK). […] All media were supplemented with 10% FBS (HyClone, GE Healthcare Life Sciences, USA). […] After overnight incubation, cells were treated with test compounds at four different concentrations ranging from 100 to 0.8 µM. […] Images were taken every 3 h, with one field image per well under 10× magnification. All compounds were tested with duplicate data points and averaged.

[13] = test system: HCT-116 (colorectal carcinoma); assay: Antiproliferative screening (cytostatic activity); format: cell-based; conditions: Homo sapiens, HCT-116; 72 h, IncuCyte imaging; read-out: IC50 HCT-116
Method: as §2

[14] = test system: K-562 (chronic myeloid leukemia); assay: Antiproliferative screening (cytostatic activity); format: cell-based; conditions: Homo sapiens, K562; 72 h, IncuCyte imaging; read-out: IC50 K-562
Method: as §2

[15] = test system: MM.1S (multiple myeloma); assay: Antiproliferative screening (cytostatic activity); format: cell-based; conditions: Homo sapiens, MM1.S; 72 h, IncuCyte imaging; read-out: IC50 MM.1S
Method: as §2

[16] = test system: NCI-H460 (lung carcinoma); assay: Antiproliferative screening (cytostatic activity); format: cell-based; conditions: Homo sapiens, NCI-H460; 72 h, IncuCyte imaging; read-out: IC50 NCI-H460
Method: as §2

[17] = test system: Z-138 (non-Hodgkin lymphoma); assay: Antiproliferative screening (cytostatic activity); format: cell-based; conditions: Homo sapiens, Z-138; 72 h, IncuCyte imaging; read-out: IC50 Z-138
Method: as §2

[18] = test system: HL-60 (acute myeloid leukemia); assay: Antiproliferative screening (cytostatic activity); format: cell-based; conditions: Homo sapiens, HL-60; 72 h, IncuCyte imaging; read-out: IC50 HL-60
Method: (§3) Cytostatic activity was evaluated in vitro on nine different types of human tumor cell lines: Capan-1, Hap1, HCT-116, and NCI-H460, as well as hematological tumors such as DND-41, HL-60, K-562, MM.1S and Z-138 as described previously. All human tumor cell lines were acquired from the American Type Culture Collection (ATCC, Manassas, VA, USA), except for the DND-41 cell line which was purchased from the Deutsche Sammlung von Mikroorganismen und Zellkulturen (DSMZ Leibniz-Institut, Braunschweig, Germany) and the Hap1 cell line which was purchased from Horizon Discovery (Waterbeach, UK). Capan-1, Hap1, HL-60, K-562, Z-138, MM.1S and DND-41 were cultured in Iscove′s Modified Dulbecco′s Medium (IMDM, Gibco Life Technologies, Gaithersburg, MD, USA), HCT-116 were grown in McCoy′s 5A Medium (Gibco Life Technologies) and NCI-H460 were cultured in RPMI (Gibco Life Technologies). All media were supplemented with 10% FBS (HyClone, GE Healthcare Life Sciences, USA). Adherent cell lines HCT-116, Hap1, NCI-H460, and Capan-1 cells were seeded at a density between 400 and 1250 cells per well, in 384-well, black-walled, clear-bottomed tissue culture plates (Greiner Bio-One, Kremsmünster, Germany). After overnight incubation, cells were treated with test compounds at four different concentrations ranging from 100 to 0.8 µM. Suspension cell lines HL-60, K-562, Z-138, MM.1S, and DND-41 were seeded at densities ranging from 3000 to 10,000 cells per well in 384-well, black-walled, clear-bottomed tissue culture plates containing test compounds at the same four concentrations. The plates were incubated and monitored at 37 °C for 72 h in an IncuCyte (Essen BioScience Inc., Ann Arbor, MI, USA) for real-time imaging. Images were taken every 3 h, with one field image per well under 10× magnification. All compounds were tested with duplicate data points and averaged. […]

[19] = test system: Hap1 (chronic myeloid leukemia); assay: Antiproliferative screening (cytostatic activity); format: cell-based; conditions: Homo sapiens, HAP1; 72 h, IncuCyte imaging; read-out: IC50 Hap1
Method: as §3

[20] = test system: DND-41 (acute lymphoblastic leukemia); assay: Antiproliferative screening (cytostatic activity); format: cell-based, human; conditions: 72 h, IncuCyte imaging, read-out: IC50 DND-41
Method: as §3

[21] = in vitro; conditions: African green monkey
[22] = MTS, read-out: EC50 Para-Influenza-3 Virus, MTS
[23] = MTS, read-out: EC50 Punta Toro Virus, MTS
[24] = visual CPE score, read-out: EC50 Para-Influenza-3 Virus, Visual CPE Score
[25] = visual CPE score, read-out: EC50 Punta Toro Virus, Visual CPE Score

SMILES	MIC [1]	MBEC [2]	MBEC [3]	MBEC [4]	MBEC [5]	MBEC [6]	MBEC [7]	MBEC [8]	MBEC [9]	EC50 [10, 22]	EC50 [11, 23]	IC50 [12]	IC50 [13]	IC50 [14]	IC50 [15]	IC50 [16]	IC50 [17]	IC50 [18]	IC50 [19]	CC50 [21]	other results
COc1cc(NC(C)CCCNC(=O)/C=C/C(=O)Nc2cccc(F)c2)c2ncccc2c1 (stereo not shown) [Compound 4a, (2E)-N-(3-Fluorophenyl)-N′-{4-[(6-methoxyquinolin-8-yl)amino]pentyl}but-2-enediamide]	> 100 µg/mL	6.3 µg/mL	>100 µg/mL	50 µg/mL	25 µg/mL	>100 µg/mL	25 µg/mL	25 µg/mL	12.5 µg/mL	> 50 µM	> 50 µM	16.9 µM	22.3 µM	31.2 µM	13 µM	15.5 µM	8.4 µM	5.7 µM	19.3 µM	46.9 µg/mL (≈ 104 µM)	IC50 ([20]; Homo sapiens, DND41, 72 h): 6.7 µM
COc1cc(NC(C)CCCNC(=O)/C=C/C(=O)Nc2ccc(F)cc2)c2ncccc2c1 (stereo not shown) [Compound 4b, (2E)-N-(4-Fluorophenyl)-N′-{4-[(6-methoxyquinolin-8-yl)amino]pentyl}but-2-enediamide]	> 100 µg/mL	25 µg/mL	25 µg/mL	25 µg/mL	25 µg/mL	25 µg/mL	12.5 µg/mL	>100 µg/mL	12.5 µg/mL	> 50 µM	> 50 µM	50.5 µM	> 100 µM	70.5 µM	> 100 µM	29.1 µM	> 100 µM	> 100 µM	66.4 µM	> 50 µg/mL	IC50 ([20]; Homo sapiens, DND41, 72 h): > 100 µM
COc1cc(NC(C)CCCNC(=O)/C=C/C(=O)Nc2cccc(Cl)c2)c2ncccc2c1 (stereo not shown) [Compound 4c, (2E)-N-(3-Chlorophenyl)-N′-{4-[(6-methoxyquinolin-8-yl)amino]pentyl}but-2-enediamide]	> 100 µg/mL	100 µg/mL	25 µg/mL	50 µg/mL	25 µg/mL	>100 µg/mL	50 µg/mL	>100 µg/mL	12.5 µg/mL	> 50 µM	5.5 µM	69.9 µM	73 µM	> 100 µM	> 100 µM	43.7 µM	46.5 µM	> 100 µM	> 100 µM	> 50 µg/mL	EC50 [10, 24]: > 50 µM; EC50 [11, 25]: > 50 µM; IC50 ([20]; Homo sapiens, DND41, 72 h): 8.4 µM
COc1cc(NC(C)CCCNC(=O)/C=C/C(=O)Nc2ccc(Cl)cc2)c2ncccc2c1 (stereo not shown) [Compound 4d, (2E)-N-(4-Chlorophenyl)-N′-{4-[(6-methoxyquinolin-8-yl)amino]pentyl}but-2-enediamide]	12.5 µg/mL (≈ 26.8 µM)	100 µg/mL	>100 µg/mL	>100 µg/mL	50 µg/mL	>100 µg/mL	>100 µg/mL	>100 µg/mL	25 µg/mL	> 50 µM	> 50 µM	91.8 µM	> 100 µM	> 100 µM	> 100 µM	> 100 µM	> 100 µM	> 100 µM	> 100 µM	> 50 µg/mL	IC50 ([20]; Homo sapiens, DND41, 72 h): > 100 µM
COc1cc(NC(C)CCCNC(=O)/C=C/C(=O)Nc2cccc(C(F)(F)F)c2)c2ncccc2c1 (stereo not shown) [Compound 4e, (2E)-N′-{4-[(6-Methoxyquinolin-8-yl)amino]pentyl}-N-[3-(trifluoromethyl)phenyl]but-2-enediamide]	> 100 µg/mL	100 µg/mL	>100 µg/mL	>100 µg/mL	50 µg/mL	>100 µg/mL	50 µg/mL	>100 µg/mL	50 µg/mL	> 50 µM	5.4 µM	56.5 µM	> 100 µM	71.2 µM	> 100 µM	34.2 µM	68.4 µM	> 100 µM	> 100 µM	> 50 µg/mL	EC50 [10, 24]: > 50 µM; EC50 [11, 25]: > 50 µM; IC50 ([20]; Homo sapiens, DND41, 72 h): 8.9 µM
COc1cc(NC(C)CCCNC(=O)/C=C/C(=O)Nc2ccc(C(F)(F)F)cc2)c2ncccc2c1 (stereo not shown) [Compound 4f, (2E)-N′-{4-[(6-Methoxyquinolin-8-yl)amino]pentyl}-N-[4-(trifluoromethyl)phenyl]but-2-enediamide]	> 100 µg/mL	100 µg/mL	>100 µg/mL	>100 µg/mL	50 µg/mL	>100 µg/mL	25 µg/mL	>100 µg/mL	25 µg/mL	> 50 µM	> 50 µM	79.4 µM	> 100 µM	> 100 µM	> 100 µM	> 100 µM	> 100 µM	> 100 µM	> 100 µM	> 50 µg/mL	IC50 [20]: > 100 µM
